How the values were obtained:
QR2 = target: T1, QR2 (Homo sapiens, UniProt P16083); assay: Inhibition of QR2 (IC50, Table 1); assay type: biochemical; conditions: for LiPE (pIC50-clogP): lipophilic efficiency, QR2 pIC50 minus clog P; for IC50: inhibitors of QR2, mean +/− SD
T1 sequence (P16083 1-231): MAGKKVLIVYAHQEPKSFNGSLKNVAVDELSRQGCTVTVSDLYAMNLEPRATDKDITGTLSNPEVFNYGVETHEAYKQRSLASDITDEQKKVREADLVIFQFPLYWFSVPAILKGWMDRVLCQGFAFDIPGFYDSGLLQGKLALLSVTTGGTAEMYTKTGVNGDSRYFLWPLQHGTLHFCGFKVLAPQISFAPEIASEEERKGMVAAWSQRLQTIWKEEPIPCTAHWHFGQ

[1] = tested on: transient middle cerebral artery (MCA) occlusion; assay: Mouse model of transient middle cerebral artery (MCA) occlusion; assay type: in vivo
[2] = in vivo
[3] = tested on: TBI model of diffuse closed head injury; assay: Murine TBI model of diffuse closed head injury; assay type: in vivo; conditions: single 25 mg/kg administration, n=12/gp
From the text: The neuroprotective potential of QR2 inhibition was investigated in a murine TBI model of diffuse closed head injury (Laskowitz et al., “Neuroprotective pentapeptide CN-105 is associated with reduced sterile inflammation and improved functional outcomes in a traumatic brain injury murine model.” Sci. Rep. 2017 Apr. 21; 7:46461).

[4] = tested on: intracranial hemorrhagic injury; assay: Mouse model of intracranial hemorrhagic injury; assay type: in vivo; conditions: single 25 mg/kg i.p. dose
[5] = tested on: CPB/DHCA perioperative cerebral injury; assay: Rat model of cardiopulmonary bypass (CPB)/deep hypothermic circulatory arrest (DHCA); assay type: in vivo, Sprague-Dawley rats; conditions: for apoptotic and necrotic neurons in cortex and hippocampus: 25 mg/kg, 48 hours after DHCA, FIG. 6, FIG. 7; for decrease in post-operative blood brain barrier permeability (gadolinium chelate, MRI): compared to respective control groups, p<0.05, preliminary results
Procedure: Perioperative cerebral injury (PCI) following major cardiovascular surgery using cardiopulmonary bypass (CPB) and deep hypothermic circulatory arrest (DHCA) remains a significant cause of adverse cerebral outcome. […] Cannulas were placed in the tail artery and the right external jugular vein. Animals were then cooled on CPB for 30 minutes, and DHCA was instituted at a pericranial temperature of 16-18° C. […] MRI was performed on day-1 post-operatively, neurological assessments on day 1 and 2 post-operatively, and animals then sacrificed after day 2.

[6] = tested on: vascular dementia (BCAS mice); assay: Murine model of vascular dementia (BCAS); assay type: in vivo; conditions: for Morris water maze escape latency: versus vehicle, n=10
Procedure: Vascular dementia is caused by chronic cerebral hypoperfusion and is characterized clinically by white matter lesions on MRI and a decline in executive function. […] Physiological, cellular, and functional outcomes were determined using a combination of quantitative immunochemistry, MRI, and behavioral tasks including Morris water maze and rotorod.

[7] = tested on: permanent MCA occlusion model; conditions: cited from earlier work
[8] = during therapeutic dosing; cited from earlier work

CNc1ccnc2cc(Cl)ccc12 [7C-4MAQ, 7-chloro-N-methylquinolin-4-amine]
LiPE (pIC50-clogP) (QR2): 4.67 | reductions in cortical stroke volumes relative to those after CQ ([1]; equivalent single acute phase dose 25 mg/kg, FIG. 3C): ~2 × | LD50 relative to the 25 mg/kg dose [2]: more than 20 times | improvement in Morris water maze performance ([3]; 1 month following injury): 62% | improvement over vehicle in rotorod latency [3]: 20% | improvement in motor function (rotorod assessment) [4]: 21% | neurological scores at post-op day 1 and 2 ([5]; 25 mg/kg 2 hours before CPB/DHCA, FIG. 8): significantly improved neurological scores | apoptotic and necrotic neurons in cortex and hippocampus [5]: fewer apoptotic and necrotic neurons | decrease in post-operative blood brain barrier permeability (gadolinium chelate, MRI) [5]: 3% | Morris water maze probe trial, time in target quadrant ([6]; p<0.05 group effect): significantly more time in the target quadrant | Morris water maze escape latency [6]: decreased escape latencies compared to vehicle controls

Oc1ccc(CCNc2ccnc3cc(Cl)ccc23)cc1 [Example Compound A, 4-{2-[(7-chloroquinolin-4-yl)amino]ethyl}phenol]
IC50 (QR2): 2.7 µM | LiPE (pIC50-clogP) (QR2): 1.65

COc1cc(NCc2ccccn2)c2ncccc2c1 [Example Compound B, 6-methoxy-N-(pyridin-2-ylmethyl)quinolin-8-amine]
LiPE (pIC50-clogP) (QR2): 4.30

COc1cc(NC(C)c2ccco2)c2ncccc2c1 (stereo not shown) [Example Compound C, N-[1-(furan-2-yl)ethyl]-6-methoxyquinolin-8-amine]
IC50 (QR2): 0.85 µM | LiPE (pIC50-clogP) (QR2): 3.42

Clc1ccc2c(Nc3ccccn3)ccnc2c1 [Example Compound D, 7-chloro-N-(pyridin-2-yl)quinolin-4-amine]
IC50 (QR2): 0.55 µM | LiPE (pIC50-clogP) (QR2): 2.71

CCN(CC)CCCC(C)Nc1ccnc2cc(Cl)ccc12 (stereo not shown) [chloroquine]
stroke evolution between 4 and 24 hours by DW-MRI ([1]; single i.p. 25 mg/kg 90 minutes after ischemia onset): reduction in stroke evolution | reduction in overall stroke volume ([1]; single i.p. 25 mg/kg 90 minutes after ischemia onset, post-mortem histology at 72 hours): 55% | apoptotic and necrotic neurons in cortex and hippocampus [5]: fewer apoptotic and necrotic neurons | decrease in post-operative blood brain barrier permeability (gadolinium chelate, MRI) [5]: 3% | Morris water maze escape latency [6]: performance profile similar to their N-MCQ counterparts | reduction of stroke volumes [7]: 60% | plasma concentration [8]: < 1000 nM

Reference: patent US20210393614A1, “QUINONE REDUCTASE 2 INHIBITORS FOR USE AS NEUROPROTECTIVE AGENTS” (DUKE UNIVERSITY, priority 2018, published 2021)
